Results on one molecule are retold here after BindingDB's records for doi:10.1016/j.bmc.2012.07.032 (Takeda Pharmaceutical, 2012).

Structures are written as SMILES. pIC50: −log10 of the molar value.

A word on the pIC50: it is −log10 of the IC50, conventionally taken in molar units.

The nature of this assay: Inhibition of VEGFR2 in HUVEC assessed as reduction of VGF-stimulated cell proliferation after 5 days.

With `CN(c1ccc(F)c(NC(=O)c2cccc(OC(C)(C)C#N)c2Cl)c1)c1ccc2nc(NC(=O)C3CC3)sc2n1`, the pIC50 is 8.92.
